Assay results from ChEMBL document CHEMBL2413072, “Synthesis and in vitro anticancer studies of novel C-2 arylidene congeners of lantadenes” (2013).

Assays:
Assay type in all cases: functional
SK-MEL-2 [1] = assay: Growth inhibition of human SK-MEL-2 cells by sulforhodamine B assay
SF-539 [2] = assay: Growth inhibition of human SF539 cells assessed as cell growth at 10^-8 M by sulforhodamine B assay; settings: read-out: Activity
[3] = Growth inhibition of human Hs 578T cells assessed as cell growth at 10^-8 M by sulforhodamine B assay; settings: read-out: Activity
COLO 205 = assay: Growth inhibition of human COLO205 cells by sulforhodamine B assay
MOLT-4 = assay: Growth inhibition of human MOLT4 cells assessed as cell growth at 10 uM by sulforhodamine B assay; settings: read-out: Activity
RPMI-8226 = assay: Growth inhibition of human RPMI8226 cells by sulforhodamine B assay
NCI-H460 = assay: Growth inhibition of human NCI-H460 cells assessed as cell growth at 10 uM by sulforhodamine B assay; settings: read-out: Activity
DU-145 [4] = assay: Growth inhibition of human DU145 cells assessed as cell growth at 10^-6 M by sulforhodamine B assay; settings: read-out: Activity
TK-10 [5] = assay: Growth inhibition of human TK10 cells assessed as cell growth at 10^-8 M by sulforhodamine B assay; settings: read-out: Activity
TK-10 [6] = assay: Growth inhibition of human TK10 cells assessed as cell growth at 10^-4 M by sulforhodamine B assay; settings: read-out: Activity
RXF 393 [7] = assay: Growth inhibition of human RXF393 cells assessed as cell growth at 10^-6 M by sulforhodamine B assay; settings: read-out: Activity
KM12 = assay: Growth inhibition of human KM12 cells assessed as cell growth at 10^-4 M by sulforhodamine B assay; settings: read-out: Activity
TK-10 [8] = assay: Growth inhibition of human TK10 cells assessed as growth inhibition at 10 uM by sulforhodamine B assay; settings: read-out: GI
SR [9] = assay: Growth inhibition of human SR cells assessed as cell growth at 10^-6 M by sulforhodamine B assay; settings: read-out: Activity
A498 = assay: Growth inhibition of human A498 cells assessed as growth inhibition at 10 uM by sulforhodamine B assay; settings: read-out: GI
SF-268 = assay: Growth inhibition of human SF268 cells assessed as cell growth at 10 uM by sulforhodamine B assay; settings: read-out: Activity
HT-29 = assay: Growth inhibition of human HT-29 cells assessed as growth inhibition at 10 uM by sulforhodamine B assay; settings: read-out: GI
SR [10] = assay: Growth inhibition of human SR cells assessed as cell growth at 10^-8 M by sulforhodamine B assay; settings: read-out: Activity
A549 = assay: Growth inhibition of human A549/ATCC cells assessed as cell growth at 10^-8 M by sulforhodamine B assay; settings: read-out: Activity
NCI-H23 [11] = assay: Growth inhibition of human NCI-H23 cells assessed as cell growth at 10^-4 M by sulforhodamine B assay; settings: read-out: Activity
RXF 393 [12] = assay: Growth inhibition of human RXF393 cells assessed as growth inhibition at 10 uM by sulforhodamine B assay; settings: read-out: GI
MCF7 = assay: Growth inhibition of human MCF7 cells assessed as cell growth at 10^-8 M by sulforhodamine B assay; settings: read-out: Activity
SF-539 [13] = assay: Growth inhibition of human SF539 cells assessed as cell growth at 10^-4 M by sulforhodamine B assay; settings: read-out: Activity
CAKI-1 [14] = assay: Growth inhibition of human CAKI-1 cells assessed as cell growth at 10^-8 M by sulforhodamine B assay; settings: read-out: Activity
SNB-19 = assay: Growth inhibition of human SNB19 cells assessed as cell growth at 10 uM by sulforhodamine B assay; settings: read-out: Activity
K562 = assay: Growth inhibition of human K562 cells assessed as cell growth at 10^-8 M by sulforhodamine B assay; settings: read-out: Activity
HOP-92 [15] = assay: Growth inhibition of human HOP92 cells assessed as cell growth at 10^-7 M by sulforhodamine B assay; settings: read-out: Activity
SW-620 = assay: Growth inhibition of human SW620 cells assessed as growth inhibition at 10 uM by sulforhodamine B assay; settings: read-out: GI
ACHN = assay: Growth inhibition of human ACHN cells assessed as cell growth at 10^-7 M by sulforhodamine B assay; settings: read-out: Activity
SK-OV-3 = assay: Growth inhibition of human SKOV3 cells assessed as growth inhibition at 10 uM by sulforhodamine B assay; settings: read-out: GI
NCI-H23 [16] = assay: Growth inhibition of human NCI-H23 cells assessed as growth inhibition at 10 uM by sulforhodamine B assay; settings: read-out: GI
HL-60(TB) = assay: Growth inhibition of human HL-60(TB) cells assessed as growth inhibition at 10 uM by sulforhodamine B assay; settings: read-out: GI
DU-145 [17] = assay: Growth inhibition of human DU145 cells assessed as cell growth at 10 uM by sulforhodamine B assay; settings: read-out: Activity
CAKI-1 [18] = assay: Growth inhibition of human CAKI-1 cells assessed as cell growth at 10 uM by sulforhodamine B assay; settings: read-out: Activity
SK-MEL-5 = assay: Growth inhibition of human SK-MEL-5 cells assessed as cell growth at 10^-4 M by sulforhodamine B assay; settings: read-out: Activity
NCI-H23 [19] = assay: Growth inhibition of human NCI-H23 cells assessed as cell growth at 10^-7 M by sulforhodamine B assay; settings: read-out: Activity
SK-MEL-2 [20] = assay: Growth inhibition of human SK-MEL-2 cells assessed as cell growth at 10 uM by sulforhodamine B assay; settings: read-out: Activity
CCRF-CEM [21] = assay: Growth inhibition of human CCRF-CEM cells assessed as cell growth at 10 uM by sulforhodamine B assay; settings: read-out: Activity
M14 = assay: Growth inhibition of human M14 cells assessed as cell growth at 10 uM by sulforhodamine B assay; settings: read-out: Activity
CCRF-CEM [22] = assay: Growth inhibition of human CCRF-CEM cells assessed as growth inhibition at 10 uM by sulforhodamine B assay; settings: read-out: GI
OVCAR-5 = assay: Growth inhibition of human OVCAR5 cells assessed as cell growth at 10 uM by sulforhodamine B assay; settings: read-out: Activity
[23] = Growth inhibition of human EKVX cells assessed as growth inhibition at 10 uM by sulforhodamine B assay; settings: read-out: GI
IGROV-1 = assay: Growth inhibition of human IGROV1 cells assessed as growth inhibition at 10 uM by sulforhodamine B assay; settings: read-out: GI
UO-31 = assay: Growth inhibition of human UO31 cells assessed as cell growth at 10^-8 M by sulforhodamine B assay; settings: read-out: Activity
[24] = Growth inhibition of human Hs 578T cells assessed as growth inhibition at 10 uM by sulforhodamine B assay; settings: read-out: GI
U-251 = assay: Growth inhibition of human U251 cells assessed as cell growth at 10^-6 M by sulforhodamine B assay; settings: read-out: Activity
HOP-92 [25] = assay: Growth inhibition of human HOP92 cells assessed as growth inhibition at 10 uM by sulforhodamine B assay; settings: read-out: GI
[26] = read-out: LC50 (the source's name)
[27] = read-out: pLC50 (the source's name) (converted)

Compound: CC(C)=CC(=O)O[C@@H]1CC(C)(C)C[C@H]2C3=CC[C@@H]4[C@@]5(C)CC[C@H](O)C(C)(C)[C@@H]5CC[C@@]4(C)[C@]3(C)CC[C@@]12C(=O)O [Reduced Lantadene B]
- GI50 (SK-MEL-2 [1]; read-out: GI50): 9.34 µM
- CC50 (SK-MEL-2 [1]; [26]): 67 µM
- TGI (SK-MEL-2 [1]; read-out: TGI): 25.4 µM
- GI50 (SK-MEL-2 [1]; read-out: pGI50 (converted)): 9.33 µM
- CC50 (SK-MEL-2 [1]; [27]): 67.6 µM
- TGI (SK-MEL-2 [1]; read-out: pTGI (converted)): 25.7 µM
- growth at 0.01 µM (SF-539 [2]): 96%
- growth at 0.01 µM [3]: 96%
- GI50 (COLO 205; read-out: GI50): 3.66 µM
- LC50 (COLO 205; read-out: LC50): 93.6 µM
- TGI (COLO 205; read-out: TGI): 14.3 µM
- GI50 (COLO 205; read-out: pGI50 (converted)): 3.63 µM
- LC50 (COLO 205; read-out: pLC50 (converted)): 93.3 µM
- TGI (COLO 205; read-out: pTGI (converted)): 14.5 µM
- growth at 10 µM (MOLT-4): 49.6%
- GI50 (RPMI-8226; read-out: GI50): 2.43 µM
- CC50 (RPMI-8226; [26]): > 100 µM
- TGI (RPMI-8226; read-out: TGI): 38.3 µM
- GI50 (RPMI-8226; read-out: pGI50 (converted)): 2.45 µM
- CC50 (RPMI-8226; [27]): > 100 µM
- TGI (RPMI-8226; read-out: pTGI (converted)): 38 µM
- growth at 10 µM (NCI-H460): 50.3%
- growth at 1 µM (DU-145 [4]): 94%
- growth at 0.01 µM (TK-10 [5]): 92%
- growth at 100 µM (TK-10 [6]): -68%
- growth at 1 µM (RXF 393 [7]): 93%
- growth at 100 µM (KM12): -47%
- inhibition of growth at 10 µM (TK-10 [8]): 20.1%
- growth at 1 µM (SR [9]): 92%
- inhibition of growth at 10 µM (A498): < 10%
- growth at 10 µM (SF-268): 92.2%
- inhibition of growth at 10 µM (HT-29): 50.7%
- growth at 0.01 µM (SR [10]): 107%
- growth at 0.01 µM (A549): 91%
- growth at 100 µM (NCI-H23 [11]): -58%
- inhibition of growth at 10 µM (RXF 393 [12]): 14.8%
- growth at 0.01 µM (MCF7): 97%
- growth at 100 µM (SF-539 [13]): -38%
- growth at 0.01 µM (CAKI-1 [14]): 97%
- growth at 10 µM (SNB-19): 85.6%
- growth at 0.01 µM (K562): 114%
- growth at 0.1 µM (HOP-92 [15]): 87%
- inhibition of growth at 10 µM (SW-620): 33.1%
- growth at 0.1 µM (ACHN): 93%
- inhibition of growth at 10 µM (SK-OV-3): 10.6%
- inhibition of growth at 10 µM (NCI-H23 [16]): 36.6%
- inhibition of growth at 10 µM (HL-60(TB)): 86%
- growth at 10 µM (DU-145 [17]): 86.6%
- growth at 10 µM (CAKI-1 [18]): 35.6%
- growth at 100 µM (SK-MEL-5): -64%
- growth at 0.1 µM (NCI-H23 [19]): 92%
- growth at 10 µM (SK-MEL-2 [20]): 86.5%
- growth at 10 µM (CCRF-CEM [21]): 27.4%
- growth at 10 µM (M14): 94%
- inhibition of growth at 10 µM (CCRF-CEM [22]): 72.6%
- growth at 10 µM (OVCAR-5): 119%
- inhibition of growth at 10 µM [23]: 52.3%
- inhibition of growth at 10 µM (IGROV-1): 21.7%
- growth at 0.01 µM (UO-31): 89%
- inhibition of growth at 10 µM [24]: 14.5%
- growth at 1 µM (U-251): 73%
- inhibition of growth at 10 µM (HOP-92 [25]): 57%
